Source: the supplement of paper PMC10307832

Assays:
Assay in all cases: relative viability (nuclei count vs DMSO), 5 days (fraction); higher = more cells survive
Salubrinal + Navitoclax = compound: O=C(/C=C/c1ccccc1)NC(NC(=S)Nc1cccc2cccnc12)C(Cl)(Cl)Cl [Salubrinal] + CC1(C)CCC(c2ccc(Cl)cc2)=C(CN2CCN(c3ccc(C(=O)NS(=O)(=O)c4ccc(N[C@H](CCN5CCOCC5)CSc5ccccc5)c(S(=O)(=O)C(F)(F)F)c4)cc3)CC2)C1 [Navitoclax] (partner 0.5 µM)
Summary of the method: (§1)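 Values are medians from duplicate plates. Each reflects relative viability, defined as the nuclei count of treated wells over that of vehicle wells. Lung cancer cell lines in 1536-well plates were pin-tool dosed one day after seeding with one drug alone or with a fixed anchor-drug dose plus five library-drug doses (not always all listed) in √10 steps, then fixed, stained and imaged at 4× after 5 days.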

Salubrinal + Trametinib = compound: O=C(/C=C/c1ccccc1)NC(NC(=S)Nc1cccc2cccnc12)C(Cl)(Cl)Cl [Salubrinal] + CC(=O)Nc1cccc(-n2c(=O)n(C3CC3)c(=O)c3c(Nc4ccc(I)cc4F)n(C)c(=O)c(C)c32)c1 [Trametinib] (partner 0.02 µM)
Summary of the method: as §1

[1] = compound: Cc1ccc2nc(NCCN)c3ncc(C)n3c2c1 + COc1cc2c(Oc3ccc(NC(=O)C4(C(=O)Nc5ccc(F)cc5)CC4)cc3F)ccnc2cc1OCCCN1CCOCC1 [Foretinib] (partner 0.25 µM)
Summary of the method: as §1

[2] = compound: Cc1ccc2nc(NCCN)c3ncc(C)n3c2c1 + O=C(CCCCCCC(=O)Nc1ccccc1)NO [Vorinostat] (partner 1 µM)
Summary of the method: as §1

Cell Line	relative viability (Salubrinal + Navitoclax; first compound 0.08 µM)	relative viability (Salubrinal + Navitoclax; first compound 0.253 µM)	relative viability (Salubrinal + Navitoclax; first compound 0.8 µM)	relative viability (Salubrinal + Navitoclax; first compound 2.53 µM)	relative viability (Salubrinal + Navitoclax; first compound 8 µM)	relative viability (Salubrinal + Trametinib; first compound 0.08 µM)	relative viability (Salubrinal + Trametinib; first compound 0.253 µM)	relative viability (Salubrinal + Trametinib; first compound 0.8 µM)	relative viability (Salubrinal + Trametinib; first compound 2.53 µM)	relative viability (Salubrinal + Trametinib; first compound 8 µM)	relative viability ([1]; first compound 0.04 µM)	relative viability ([1]; first compound 0.1265 µM)	relative viability ([1]; first compound 0.4 µM)	relative viability ([1]; first compound 1.265 µM)	relative viability ([1]; first compound 4 µM)	relative viability ([2]; first compound 0.04 µM)	relative viability ([2]; first compound 0.1265 µM)	relative viability ([2]; first compound 0.4 µM)	relative viability ([2]; first compound 1.265 µM)	relative viability ([2]; first compound 4 µM)
NCI-H1666	0.979	0.992	1.24	0.93	0.878	0.802	0.869	0.847	0.903	0.783	0.96	0.903	1.04	1.02	0.921	1.06	1.05	0.925	0.944	1.05
NCI-H1734	0.938	0.755	0.964	0.858	0.745	0.704	0.742	0.787	0.656	0.597	0.911	0.903	0.78	0.95	0.801	0.816	0.824	0.637	0.733	0.77
NCI-H1755	1.04	0.983	0.928	1.05	0.969	0.847	0.803	0.829	0.765	0.716	0.936	0.84	0.919	0.928	0.876	0.806	0.899	0.728	0.696	0.857
NCI-H1793	0.476	0.432	0.431	0.351	0.339	0.484	0.437	0.402	0.42	0.304	0.79	0.68	0.672	0.615	0.748	0.825	0.792	0.815	0.642	0.679
NCI-H1915	0.774	0.778	0.83	0.759	0.774	0.219	–	0.583	0.314	0.311	1.11	1.06	–	1.12	1.03	0.515	0.506	0.422	0.555	0.454
NCI-H1944	1.07	1.08	1.12	1.04	1.05	0.451	0.448	0.403	0.399	0.374	0.896	0.862	0.773	0.9	0.958	0.639	0.581	0.358	0.491	0.581
NCI-H1975	1.27	0.796	1.21	1.15	1.1	0.281	0.309	0.36	0.376	0.312	0.992	0.981	0.895	0.947	0.882	0.733	0.711	0.753	0.708	0.582
NCI-H1993	1.02	0.902	0.976	0.799	0.733	0.506	0.614	0.503	–	0.616	0.904	0.685	0.748	0.626	0.698	0.797	0.776	0.727	0.856	0.649
